Laboratory results published in US20120276015A1, “Optical in vivo Imaging Contrast Agents and Methods of Use” (priority 2005, published 2012).

Tested on: sites of inflammation
Test: In vivo imaging of collagen-induced arthritis (CIA) mice, qualitative analysis of targeting
Set-up: species or system Balb/c mice
Details: inflamed paw
Description: Inflammation was modeled by inducing polyarticular collagen-induced arthritis (CIA) in 4-6 week old female Balb/c mice (Charles River). Antibody mediated CIA was induced by intravenous (IV; tail vein) injection of 2 mg Arthrogen-CIA Monoclonal Antibody Blend (Chemicon). Three days after antibody treatment, each mouse received 50 μg Lipopolysaccharide (LPS; Chemicon) intraperitoneally (IP). Seven days after the initial injection, the mice had recovered from the LPS toxicity and symptoms of arthritis were observed. Mice were monitored daily and scored for paw and joint swelling based on the following scale: • 0: Normal • 1: Mild but definite swelling of ankle or wrist or swelling limited to individual digits • 2: Moderate redness and swelling of ankle and wrist • 3: Severe redness and swelling of the entire paw including digits (none of the study mice reached this stage)
Mice were injected with the present contrast agent when they reached level 2, between five and ten days after the LPS injection.
Contrast agents were introduced systemically by IV injection. A 29-guage needle was used to inject 100 μl of 1% solids in water (without buffer salts or saline) containing 2% Pluronic F-127 via the lateral tail vein. The tail was stroked lengthwise three times with an alcohol saturated pad to dilate the blood vessels prior to injection. […]

Substance: BSA conjugate: BSA conjugate used as comparison contrast agent; labeled the whole paw
- image resolution of labeling: labeled the whole paw
